Laboratory results from patent publication US10206900B2, “Treatments for fibrotic diseases” (MOR RESEARCH APPLICATIONS LTD., priority 2013, dated 2019).

Legend:
MMP-9 = MMP-9 activity by gelatin zymography in RPE cell supernatants; assay type: cell-based; details: RPE cells, pretreatment 1 μM, TGF-β1 2.5 ng/ml, 24 hours; TGF-β1 alone 3.2 fold
Experimental: (§1) FIGS. 2A-2C TAK1 regulates RPE cells EMT phenotype upon TGF-β stimulation. FIG. 2A: RPE cells were serum-starved for 16 hours, pretreated with 5Z-7-oxozeaenol (1 μM) or left untreated for 1 hour. The cells were then treated with TGF-β1 (2.5 ng/ml) as described herein for 24 h and immunostained with α-SMA antibodies (red) and DAPI (blue). Representative photographs of three independent experiments. The histogram in the bottom panel represents quantification of α-SMA antibody pixel intensity. FIG. 2B: RPE cells were serum-starved for 16 hours, then treated with mitomycin C (10 ng/ml) for 3 h. Thereafter, pretreated with 5Z-7-oxozeaenol (1 μM) or Dimethyl sulfoxide (DMSO) for 1 hour. Following this process a scratch was performed in the cell monolayer and the serum free medium was supplemented with TGF-β1 (2.5 ng/ml) or left unsupplemented. Scratches were photo-documented at the indicated times (top panel) and their width was measured using Image-J software. […] Bars are Mean±SD. FIG. 2C: RPE cells were serum-starved for 16 hours then pretreated with 5Z-7-oxozeaenol (1 μM) or SB431542 (10 μM), or DMSO for 1 hour. […] Total MMP-9 activities were processed by gelatin zymography (top panel) and the band intensity values were calculated by Quantity One® 1-D analysis software. […] Data is expressed as the Mean±SD.

aortic ring explants = experiment: Aortic ring assay ex vivo; details: aortic ring explants in Matrigel, 1 μM, 8 days
Experimental: FIG. 15: TAK1 regulates the fibrotic switch in aortic injury ex vivo. aortic ring explants were seeded in Matrigel with or without 5z-7 (1 μM) for 8 days and then photo-documented. The photographs shown are representative from one of three independent experiments (N=9). As can been in the control aortic ring explants there is growth of sprouts due to the injury/fibrotic process.

RPE cells [1] = experiment: Scratch assay, cell migration upon TGF-β1 stimulation; assay type: cell-based; details: 1 μM, TGF-β1 2.5 ng/ml, 24 and 48 hours
Experimental: as §1, with “the Mean±SD. […]” for “the Mean±SD.”

Smad2/3 = Smad2/3 phosphorylation by immuno-blot in W2b liver hepatocytes; assay type: cell-based; details: 1 μM for 1 hour, TGF-β 2.5 ng/ml
Experimental: (§2) FIG. 10: Inhibition of TAK1 abolishes the activation of TGF-β cascades in liver cells. TGF-β1 up-regulates-Smad 2/3 and p38 activation and E-cadherin expression via TAK1 activity in hepatic cells. W2B liver hepatocytes cells were treated with or without 5Z-7-oxozeaenol followed by TGF-β treatment and Smad2/3 and p38 phosphorylation patterns were examined by immuno-blots. W2b liver hepatocytes cells were treated with or without 5Z-7-oxozeaenol (1 μM) for 1 hour followed by TGF-β treatment (2.5 ng/ml) for the indicated times. Smad2/3 and p38 phosphorylation patterns were examined by immuno-blots as described above.

RPE cells [2] = experiment: α-SMA expression (immunostaining) upon TGF-β1 stimulation; assay type: cell-based; details: 5Z-7-oxozeaenol 1 μM pretreatment 1 hour, TGF-β1 2.5 ng/ml, serum-free
Experimental: as §1, with “the Mean±SD. […]” for “the Mean±SD.”

p38 [3] = experiment: p38 phosphorylation by immuno-blot in W2b liver hepatocytes; assay type: cell-based; details: 1 μM for 1 hour, TGF-β 2.5 ng/ml
Experimental: as §2

CTGF = CTGF transcription by qPCR in RPE cells; assay type: cell-based; details: 1 μM, TGF-β1, 6 h, 16 h and 24 h
Experimental: FIG. 3A: RPE cells were plated on fibronectin-coated glass coverslips, serum-starved for 16 hours, pretreated with 5Z-7-oxozeaenol (1 μM) or SB431542 (10 μM), or DMSO for 1 hour, then treated with or without TGF-β1 for 2 days. Following treatment, the cells were stained with rhodamine-phalloidin (actin fibers-red) and DAPI (blue) and visualized by confocal microscopy. Scale bars: […]. FIG. 3B: Serum-starved RPE cells pretreated with 5Z-7-oxozeaenol (1 μM) or DMSO for 1 hour, and were exposed to TGF-β as in FIG. 3A. Total RNA was extracted at each time point and qPCR was performed. Transcription levels of CTGF were determined after 6 h, 16 h and 24 h. Bars represent the specific mRNA amount relative to GAPDH mRNA in the same samples. All experiments were performed in triplicates. A representative histogram from two independent experiments is shown. FIG. 3C: RPE cells were plated and treated as in FIG. 3A. Following treatment, the cells were immunostained with E-cadherin antibodies (green) and DAPI (blue). Representative photographs of two independent experiments are shown. CTGF, an important stimulant of fibrosis, functions as a downstream mediator of TGF-β, stimulating cell proliferation and cell matrix deposition (He et al., Invest Ophthalmol Vis Sci 2008, 49:4078-4088). We examined the association between TGF-β1 and CTFG expression in RPE cells by Real Time PCR (FIG. 3B).

p38 [4] = experiment: p38 phosphorylation by immuno-blot in HT29 colon cells; assay type: cell-based; details: HT29 Human colon cells, TGF-β treatment, versus untreated cells
Experimental: FIG. 11. Inhibition of TAK1 abolishes the activation of TGF-β cascades in colon cells. TGF-β1 up-regulates-Smad 2/3 and p38 activation via TAK1 activity in colon cells. HT29 Human colon cells were treated with or without 5Z-7-oxozeaenol followed by TGF-β treatment. Smad2/3 and p38 phosphorylation patterns were examined by immuno-blots. HT29 Human colon cells were treated as in the previous examples with or without 5Z-7-oxozeaenol, followed by TGF-β treatment. Inhibition of TAK1 was assayed by observation of Smad2/3 and p38 phosphorylation patterns by immuno-blots.

COc1cc(O)c2c(c1)/C=C/C[C@H](O)[C@H](O)C(=O)/C=C\C[C@H](C)OC2=O [5Z-7-oxozeaenol]
MMP-9 activity, fold higher than the control group (MMP-9): 1.59 fold | fibrotic effect resultant from the injury process (sprout growth) (aortic ring explants): abolish the fibrotic effect | migratory capacity of TGF-β1 stimulated cells (scratch assay) (RPE cells [1]): abolished their migratory capacity | Smad2/3 activation (Smad2/3): barely detectable | TGF-β1-stimulated α-SMA expression (RPE cells [2]): significantly attenuated | p38 activation (p38 [3]): barely detectable | levels of CTGF (mRNA relative to GAPDH) (CTGF): gradually reduced the levels of CTGF | p38 phosphorylation (p38 [4]): significantly inhibited
